The test concerns the target T1, F508del (Homo sapiens, UniProt P13569, DEL508-508).
T1 construct: expressed in transfected cells
Description: Protocol 2: FRET membrane potential optical assay (VIPR), identification of correction compounds. Type of test: cell-based. In short, it runs like this: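 Single-addition HTS format: F508del-expressing NIH3T3 cells pre-incubated 16 hrs at 37° C. ± compound, with 27° C. culture as positive control. Channel activation by forskolin 10 μM and genistein 20 μM upon switch to gluconate bath, pH 7.4; read-out is FRET-based depolarization signal.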

Setting [1] is: Table 3, compounds of Table 1 as modulators of CFTR activity, protocol not stated.
[2] abbreviates: F508del CFTR modulator activity, compounds of Table 1, read-out: EC30.

Where two headings read alike, the source gives them in different places.

T1 sequence (P13569 with tags, fused parts or gaps DEL508-508): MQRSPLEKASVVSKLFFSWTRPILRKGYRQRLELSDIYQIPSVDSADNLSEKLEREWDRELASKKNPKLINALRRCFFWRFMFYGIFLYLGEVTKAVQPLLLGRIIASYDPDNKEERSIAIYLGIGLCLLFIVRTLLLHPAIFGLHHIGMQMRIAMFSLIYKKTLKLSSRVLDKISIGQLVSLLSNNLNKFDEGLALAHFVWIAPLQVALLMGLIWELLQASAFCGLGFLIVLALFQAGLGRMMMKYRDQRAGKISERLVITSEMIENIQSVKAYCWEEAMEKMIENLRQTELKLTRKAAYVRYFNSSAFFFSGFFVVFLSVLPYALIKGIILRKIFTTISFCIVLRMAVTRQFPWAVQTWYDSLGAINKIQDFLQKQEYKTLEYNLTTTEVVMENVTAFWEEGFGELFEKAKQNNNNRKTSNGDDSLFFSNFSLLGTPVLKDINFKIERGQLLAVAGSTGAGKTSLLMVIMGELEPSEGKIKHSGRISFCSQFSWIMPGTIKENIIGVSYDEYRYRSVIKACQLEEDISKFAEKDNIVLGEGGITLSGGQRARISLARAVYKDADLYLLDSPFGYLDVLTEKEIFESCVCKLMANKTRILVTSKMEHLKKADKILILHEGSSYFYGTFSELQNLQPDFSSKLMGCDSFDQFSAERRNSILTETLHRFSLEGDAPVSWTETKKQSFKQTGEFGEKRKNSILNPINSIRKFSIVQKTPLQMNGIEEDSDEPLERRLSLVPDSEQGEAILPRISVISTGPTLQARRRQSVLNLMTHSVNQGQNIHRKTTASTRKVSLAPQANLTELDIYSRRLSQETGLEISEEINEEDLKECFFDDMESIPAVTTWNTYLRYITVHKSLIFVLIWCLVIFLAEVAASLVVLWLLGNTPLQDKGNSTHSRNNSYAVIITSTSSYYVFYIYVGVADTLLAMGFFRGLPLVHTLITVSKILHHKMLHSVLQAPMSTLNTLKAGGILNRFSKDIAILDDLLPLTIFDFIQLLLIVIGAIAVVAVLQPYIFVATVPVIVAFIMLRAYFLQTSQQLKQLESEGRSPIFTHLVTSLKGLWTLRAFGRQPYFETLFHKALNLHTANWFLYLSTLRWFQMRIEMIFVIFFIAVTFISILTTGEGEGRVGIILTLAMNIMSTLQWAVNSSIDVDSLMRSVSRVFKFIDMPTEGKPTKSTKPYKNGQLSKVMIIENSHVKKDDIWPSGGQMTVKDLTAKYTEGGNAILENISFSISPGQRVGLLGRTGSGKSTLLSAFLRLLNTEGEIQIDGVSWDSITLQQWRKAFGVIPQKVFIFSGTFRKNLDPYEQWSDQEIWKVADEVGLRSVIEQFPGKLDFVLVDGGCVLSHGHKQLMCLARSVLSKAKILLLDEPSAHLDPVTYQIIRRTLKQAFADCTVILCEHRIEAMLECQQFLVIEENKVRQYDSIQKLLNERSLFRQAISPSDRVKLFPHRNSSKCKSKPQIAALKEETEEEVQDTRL

For the compound `CC(c1ccccc1)n1c(C(=O)NS(=O)(=O)c2ccccc2)cc2c(F)cccc21` (centres unmarked) [Compound 160, N-(benzenesulfonyl)-4-fluoro-1-(1-phenylethyl)indole-2-carboxamide], the EC30 result under setting [1] was “+++ (“+++” means <3 uM)”. For the compound `CC1CN(c2ncccc2C(=O)NS(=O)(=O)c2cccc(N3CCOC(C)C3)n2)C(C)(C)C1` (centres unmarked) [Compound 2324, N—[[6-(2-methylmorpholin-4-yl)-2-pyridyl]sulfonyl]-2-(2,2,4-trimethylpyrrolidin-1-yl)pyridine-3-carboxamide], the EC30 under setting [2] fell in the range of 3 to 10 µM. Consider `Cc1cc(C)c(CN2Cc3ccccc3C2C(=O)NS(=O)(=O)c2cc(N)ccn2)c(C)c1` (centres unmarked) [Compound 32, N-[(4-amino-2-pyridyl)sulfonyl]-2-[(2,4,6-trimethylphenyl)methyl]isoindoline-1-carboxamide], for which the EC30 result under setting [1] was “++ (“++” means between 3 uM and 10 uM)”. `CC(C)COc1cc(F)cc(-c2nc(N3C[C@@H](C)CC3(C)C)c(C(=O)NS(=O)(=O)c3cccc(N)n3)cc2F)c1` [Compound 2473, N-[(6-amino-2-pyridyl)sulfonyl]-5-fluoro-6-(3-fluoro-5-isobutoxy-phenyl)-2-[(4S)-2,2,4-trimethylpyrrolidin-1-yl]pyridine-3-carboxamide]: under setting [2], the EC30 was below 3 µM.

`Cc1cc(C)c(Oc2nc(-c3ccncc3F)ccc2C(=O)NS(=O)(=O)c2cccc(N)n2)c(C)c1` [Compound 514, N-[(6-amino-2-pyridyl)sulfonyl]-6-(3-fluoro-4-pyridyl)-2-(2,4,6-trimethylphenoxy)pyridine-3-carboxamide]: the EC30 result under setting [1] is recorded as “+ (“+” means greater than 10 uM)”. Still for that read-out and setting: as for `CC(C)C(C)Oc1cccc(-c2ccc(C(=O)NS(=O)(=O)c3cccc(N)n3)c(N3CCCC3(C)C)n2)n1` (centres unmarked) [Compound 717, N-[(6-amino-2-pyridyl)sulfonyl]-6-[6-(1,2-dimethylpropoxy)-2-pyridyl]-2-(2,2-dimethylpyrrolidin-1-yl)pyridine-3-carboxamide], the entry is “+++ (“+++” means <3 uM)”. On to `CC1CN(c2ncccc2C(=O)NS(=O)(=O)c2cccc(N3CCC[C@@H]3C(=O)OC(C)(C)C)n2)C(C)(C)C1` (stereo partly drawn) [Compound 2536, tert-butyl (2R)-1-[6-[[2-(2,2,4-trimethylpyrrolidin-1-yl)pyridine-3-carbonyl]sulfamoyl]-2-pyridyl]pyrrolidine-2-carboxylate], for which the EC30 under setting [2] is below 3 µM. Turning to `Cc1cc(-c2ccc(C(=O)NS(=O)(=O)c3cccc(N)n3)c(N3C[C@@H](C)CC3(C)C)n2)cnc1N(C)CC(C)C` [Compound 2279, N-[(6-amino-2-pyridyl)sulfonyl]-6-[6-[isobutyl(methyl)amino]-5-methyl-3-pyridyl]-2-[(4S)-2,2,4-trimethylpyrrolidin-1-yl]pyridine-3-carboxamide], the EC30 under setting [2] is below 3 µM. For the compound `COc1cccc(-c2ccc(C(=O)NS(=O)(=O)c3cccc(N)n3)c(Oc3c(C)cc(C)cc3C)n2)c1OC` [Compound 485, N-[(6-amino-2-pyridyl)sulfonyl]-6-(2,3-dimethoxyphenyl)-2-(2,4,6-trimethylphenoxy)pyridine-3-carboxamide], the EC30 result under setting [1] was “+++ (“+++” means <3 uM)”.

For `C[C@@H]1CN(c2nc(-c3cccc(F)c3F)ccc2C(=O)NS(=O)(=O)N2CC[C@H](N)C2)C(C)(C)C1` [Compound 2110, N-[(3S)-3-aminopyrrolidin-1-yl]sulfonyl-6-(2,3-difluorophenyl)-2-[(4S)-2,2,4-trimethylpyrrolidin-1-yl]pyridine-3-carboxamide], the EC30 under setting [2] is above 10 µM. Take `CCOc1ccc(F)c(-c2ccc(C(=O)NS(=O)(=O)c3cccc(N)n3)c(Oc3c(C)cc(C)cc3C)n2)c1` [Compound 599, N-[(6-amino-2-pyridyl)sulfonyl]-6-(5-ethoxy-2-fluoro-phenyl)-2-(2,4,6-trimethylphenoxy)pyridine-3-carboxamide]: the 30% effect concentration (EC30) entry under setting [1] is listed as “+++ (“+++” means <3 uM)”. The same measure, in the same setting: the result for `Cc1cc(C)c(Cn2c(C(=O)NS(=O)(=O)c3ccccc3C#N)cc3ccccc32)c(C)c1` [Compound 358] reads “+++ (“+++” means <3 uM)”.

Consider `CCOc1cccc(F)c1-c1ccc(C(=O)NS(=O)(=O)c2cccnc2N)c(N2C[C@@H](C)CC2(C)C)n1` [Compound 2103, N-[(2-amino-3-pyridyl)sulfonyl]-6-(2-ethoxy-6-fluoro-phenyl)-2-[(4S)-2,2,4-trimethylpyrrolidin-1-yl]pyridine-3-carboxamide], for which the EC30 under setting [2] is below 3 µM. As for `Cc1cc(C)c(Cc2oc(C(C)(C)C)nc2C(=O)NS(=O)(=O)c2cccc(N)c2)c(C)c1` [Compound 360, N-(3-aminophenyl)sulfonyl-2-tert-butyl-5-[(2,4,6-trimethylphenyl)methyl]oxazole-4-carboxamide], the EC30 entry under setting [1] is “+++ (“+++” means <3 uM)”. For `Cc1cccc(-c2ccc(C(=O)NS(=O)(=O)N3CC[C@H](N)C3)c(N3C[C@@H](C)CC3(C)C)n2)c1` [Compound 2339, N-[(3S)-3-aminopyrrolidin-1-yl]sulfonyl-6-(m-tolyl)-2-[(4S)-2,2,4-trimethylpyrrolidin-1-yl]pyridine-3-carboxamide], the EC30 under setting [2] is below 3 µM. The same measure, in the same setting: the result for `CC(C)Cn1ccc(-c2cnc(N3CC(C)CC3(C)C)c(C(=O)NS(=O)(=O)c3cccc(N)n3)c2)n1` (centres unmarked) [Compound 2303, N-[(6-amino-2-pyridyl)sulfonyl]-5-(1-isobutylpyrazol-3-yl)-2-(2,2,4-trimethylpyrrolidin-1-yl)pyridine-3-carboxamide] reads 3 to 10 µM. Consider `CCc1ccc2c(c1)cc(C(=O)NS(=O)(=O)c1cccc(N)n1)n2Cc1c(C)cc(C)cc1C` [Compound 179, N-[(6-amino-2-pyridyl)sulfonyl]-5-ethyl-1-[(2,4,6-trimethylphenyl)methyl]indole-2-carboxamide], for which the EC30 result under setting [1] is “+++ (“+++” means <3 uM)”. Take `CC1CCN(c2nc3c(cc2C(=O)NS(=O)(=O)c2cccc(N)n2)CCCC3(C)C)CC1` [Compound 750, N-[(6-amino-2-pyridyl)sulfonyl]-8,8-dimethyl-2-(4-methyl-1-piperidyl)-6,7-dihydro-5H-quinoline-3-carboxamide]: the EC30 entry under setting [1] is reported as “+++ (“+++” means <3 uM)”. In the case of `CC1CN(c2ncccc2C(=O)NS(=O)(=O)c2cccc(Nc3ccccc3)n2)C(C)(C)C1` (centres unmarked) [Compound 2639, N-[(6-anilino-2-pyridyl)sulfonyl]-2-(2,2,4-trimethylpyrrolidin-1-yl)pyridine-3-carboxamide], the EC30 under setting [2] is below 3 µM. Take `CCOc1ccc(F)c(-c2ccc(C(=O)NS(=O)(=O)c3cccnc3N)c(N3C[C@@H](C)CC3(C)C)n2)c1` [Compound 2149, N-[(2-amino-3-pyridyl)sulfonyl]-6-(5-ethoxy-2-fluoro-phenyl)-2-[(4S)-2,2,4-trimethylpyrrolidin-1-yl]pyridine-3-carboxamide]: the EC30 under setting [2] is below 3 µM. As to `CC1CN(c2ncccc2C(=O)NS(=O)(=O)c2cccc(Oc3ccc4c(c3)CCCC4=O)n2)C(C)(C)C1` (centres unmarked) [Compound 2523, N—[[6-(1-oxotetralin-6-yl)oxy-2-pyridyl]sulfonyl]-2-(2,2,4-trimethylpyrrolidin-1-yl)pyridine-3-carboxamide], the EC30 under setting [2] lay in the range of 3 to 10 µM. For `CC(C)[C@@H](C)Oc1nc(N2C[C@@H](C)CC2(C)C)c(C(=O)NS(=O)(=O)c2cccc(N)n2)cc1F` [Compound 2020, N-[(6-amino-2-pyridyl)sulfonyl]-6-[(1R)-1,2-dimethylpropoxy]-5-fluoro-2-[(4S)-2,2,4-trimethylpyrrolidin-1-yl]pyridine-3-carboxamide], under setting [2], the concentration for an effect of 30% (EC30) was below 3 µM. For `Cc1cc(C)c(Cn2nc(C(C)C)cc2C(=O)NS(=O)(=O)c2cccc(N)c2)c(C)c1` [Compound 566, N-(3-aminophenyl)sulfonyl-5-isopropyl-2-[(2,4,6-trimethylphenyl)methyl]pyrazole-3-carboxamide], under setting [1], the EC30 result was “+ (“+” means greater than 10 uM)”.

On to `Cc1cc(C)c(Cn2cc(C(C)(C)C)cc2C(=O)NS(=O)(=O)c2cccc(N)c2)c(C)c1` [Compound 195, N-(3-aminophenyl)sulfonyl-4-tert-butyl-1-[(2,4,6-trimethylphenyl)methyl]pyrrole-2-carboxamide], for which the EC30 result under setting [1] was “+++ (“+++” means <3 uM)”. Turning to `COc1ccc2nc(N3C[C@@H](C)CC3(C)C)c(C(=O)NS(=O)(=O)c3cccc(N)n3)cc2c1` [Compound 2196, N-[(6-amino-2-pyridyl)sulfonyl]-6-methoxy-2-[(4S)-2,2,4-trimethylpyrrolidin-1-yl]quinoline-3-carboxamide], under setting [2], the EC30 was below 3 µM. For `COc1cccc2c1cc(C(=O)NS(=O)(=O)c1ccccc1)n2Cc1c(C)cccc1C` [Compound 290, N-(benzenesulfonyl)-1-[(2,6-dimethylphenyl)methyl]-4-methoxy-indole-2-carboxamide], the EC30 entry under setting [1] is given as “+++ (“+++” means <3 uM)”. For `CC(C)COc1cc(F)cc(-c2ccc(C(=O)NS(=O)(=O)c3cccc(N)n3)c(OCC3CCO3)n2)c1` (centres unmarked) [Compound 640, N-[(6-amino-2-pyridyl)sulfonyl]-6-(3-fluoro-5-isobutoxy-phenyl)-2-(oxetan-2-ylmethoxy)pyridine-3-carboxamide], the EC30 result under setting [1] was “++ (“++” means between 3 uM and 10 uM)”. With `C[C@@H]1CN(c2nc(-c3cccc4ccccc34)ccc2C(=O)NS(=O)(=O)c2ccc[nH]c2=O)C(C)(C)C1` [Compound 2007, 6-(1-naphthyl)-N-[(2-oxo-1H-pyridin-3-yl)sulfonyl]-2-[(4S)-2,2,4-trimethylpyrrolidin-1-yl]pyridine-3-carboxamide], the EC30 under setting [2] was below 3 µM.

Regarding `COCCOc1ncc(-c2ccc(C(=O)NS(=O)(=O)c3cccc(N)n3)c(N3C[C@@H](C)CC3(C)C)n2)cc1C` [Compound 2582, N-[(6-amino-2-pyridyl)sulfonyl]-6-[6-(2-methoxyethoxy)-5-methyl-3-pyridyl]-2-[(4S)-2,2,4-trimethylpyrrolidin-1-yl]pyridine-3-carboxamide], under setting [2], the EC30 is below 3 µM.

What is called EC30 is the point of the concentration-response curve where the effect stands at 30%.

Values taken from patent publication US10758534B2 (Vertex Pharmaceuticals Incorporated, priority 2014, dated 2020).
